By half-life is commonly meant the time needed for the level to fall by half in the phase considered.

Results on one compound are retold here after paper PMC3892053, “Pharmacokinetic/pharmacodynamic modeling for the determination of a cimicoxib dosing regimen in the dog” (BMC Veterinary Research, 2013).

Series [1] is described as follows: Plasma pharmacokinetics after single oral administration in beagle dogs (Study 1). It counts as in vivo, dog. To be noted: mean ± SD; for half-life: beagle, dog, plasma, po, 2 mg/kg, read-out: terminal half-life (converted). The protocol: The study was conducted according to a classical 2×2 crossover design. Briefly, in period one, half of the dog (3 males and 3 females), received a single oral dose of cimicoxib (approximately 2 mg/kg, one 20 mg capsules – Vetoquinol Lure france) 26.5 h after the induction of kaolin inflammation on the left paw; the other half dogs received a placebo treatment at the same time. In period 2, treatments were crossed over for each dog and inflammation was induced on the right paw. A wash-out delay of at least 5 weeks was applied between the two periods. The treatment (cimicoxib or placebo) was blinded to the investigators.
Blood samples (5 mL, heparinized tubes) were obtained from the jugular vein by direct puncture just before inflammation to perform a biochemical checkup of the animals at the beginning of the experiment. Time 0 was defined as the time of treatment administration. Blood samples (5 mL, heparinized tubes) were collected at time 0 (just before cimicoxib or placebo administration) and then at times 30, 60, 90 min, and, 4, 6, 9, 15, 30 and 48 hours post-treatment. Tubes were centrifuged at 3000 G and plasma samples were stored at -20°C.
Plasma samples were analyzed by a High Performance Liquid Chromatography (HPLC) method using ultraviolet (UV) detection. Briefly, an internal standard (UR-8877) and cimicoxib (UR-8880) were extracted from plasma by a solid liquid (methanol) extraction process using HLB Oasis cartridges (Waters). The extraction yield was about 90%. The HPLC apparatus consists of a pump system equipped with an automatic injector and an UV detector (242 nm). […] The validated limit of quantification was 0.01 μg/mL.
Pharmacokinetic and PK/PD modeling were performed by least-squares regression analysis using WinNonlin Professional software (WinNonlin® software, version 4.0.1, Pharsight Corporation, Mountain View, Ca, USA). […] The number of exponential (2 or 3) terms needed to obtain the best fit for each data set was determined by the Akaike’s information criteria and by inspecting the plot of residuals. […]

For series [2], the system named is kaolin-induced paw inflammation. Nature of the series: Simulation of dose-effect relationship with the PK/PD model (EM dog parameters). Particulars: simulated, oral, dose-linearity assumed. The protocol: For higher cimicoxib doses, only the duration of the maximum effect was increased. […] Figure 6 Simulated values of the effects of the cimicoxib for different oral doses of cimicoxib for the 4 endpoints modeled using a PK/PD model in the 8 extensive metabolizer dogs. Effects of cimicoxib vs. time (h) were simulated using the corresponding PK/PD model for different oral doses of cimicoxib (from 0.1 to 8 mg/kg) on the rectal temperature (°C), the normalized vertical ground reaction force of the paw, the creeping speed (m/s) and the overall clinical lameness score. PK and PD parameters used for simulations were the means of those obtained in the 8 extensive metabolizer dogs. The thick line was obtained with 2 mg/kg, the dose that has been selected for confirmatory clinical trials.

Series [3] deals with peri-operative pain; pain and inflammation associated with osteoarthritis. Particulars: inferiority limit 20%, cited from earlier work.
Details of series [4]: method as in Vetoquinol, unpublished results. Particulars: non-linear disposition, ref Vetoquinol, unpublished results, cited from earlier work.

Where two headings read alike, the source gives them in different places.

Take `COc1ccc(-c2c(Cl)ncn2-c2ccc(S(N)(=O)=O)cc2)cc1F` [cimicoxib]: the half-life in series [1] (EM beagle dogs (n = 8)) was 4.6 ± 2.6 h. Besides, the half-life in series [1] (PM beagle dogs (n = 4)) is 8 ± 0.6 h. The compound further yielded a terminal half-life in series [1] (oral 2 mg/kg, EM beagle dogs (n = 8)) of 2.9 ± 0.9 h. For the same compound, in series [2], the “dose predicted to give a nearly maximal effect, creeping speed” value was 1.5 mg/kg; the “dose predicted to give a nearly maximal effect, ground reaction vertical force” value was 3 mg/kg; the “dose predicted to give a nearly maximal effect, overall clinical lameness score” value is listed as 2 mg/kg; the “dose predicted to give a nearly maximal effect, rectal temperature” value was 1 mg/kg. For the same compound, the “comparison against firocoxib, primary efficacy endpoint” value in series [3] (pain and inflammation associated with osteoarthritis) is reported as “non-inferiority”. For the same compound, the “comparison to carprofen on pain during the first 24 hours (composite pain clinical score)” value in series [3] (peri-operative pain, orthopaedic or soft tissue surgery, carprofen 4 mg/kg per day) is given as “non-inferiority”. Besides, in series [4] (oral dose of 1 mg/kg), the “dose of the simulations to which observed plasma concentrations correspond” value is listed as 1.46 mg/kg. Besides, the “dose of the simulations to which observed plasma concentrations correspond” value in series [4] (oral dose of 4 mg/kg) was 3.18 mg/kg.
